Test results taken from ChEMBL document CHEMBL1150623, “Two new triterpene esters from the twigs of Brachylaena ramiflora from the Madagascar rainforest” (J Nat Prod, 2002).
In brackets after ≈: the same amount, converted by molar mass. Numbered stars: 1 amine (or outer) side, 2 acyl side, 3 side chain; on linkers, the order of the positions; unused ones are H or OH. Bridge positions count the residues as written; N and C are the ends. Square brackets hold non-standard residues; d marks the D form. Peptide text beside a SMILES is read from it. I, II: the chains in the order shown. Actinocin(1to9) = Cc1c2oc3c(C)ccc(C(=O)[*:2])c3nc-2c(C(=O)[*:1])c(N)c1=O; NMeV = CN[C@H](C(=O)O)C(C)C; Sar = CNCC(=O)O

System: A2780
Experiment: Cytotoxicity against human A2780 cells
Assay type: functional, cell-based

CCCCCCCCCCCCCCCC(=O)O[C@H]1CC[C@]2(C)[C@H]3CC=C4[C@@H]5CC(C)(C)CC[C@]5(C)CC[C@@]4(C)[C@]3(C)CC[C@H]2C1(C)C
IC50: 13.4 µg/mL (≈ 20.1 µM)

CCCCCCCCCCCCCCCC(=O)O[C@H]1CC[C@]2(C)[C@H]3CC=C4[C@@H]5[C@@H](C)[C@H](C)CC[C@@]5(C)CC[C@@]4(C)[C@]3(C)CC[C@H]2C1(C)C
IC50: 15.4 µg/mL (≈ 23.2 µM)

Cc1c2oc3c(C)ccc(C(=O)N[C@@H]4C(=O)N[C@H](C(C)C)C(=O)N5CCC[C@H]5C(=O)N(C)CC(=O)N(C)[C@@H](C(C)C)C(=O)O[C@@H]4C)c3nc-2c(C(=O)N[C@@H]2C(=O)N[C@H](C(C)C)C(=O)N3CCC[C@H]3C(=O)N(C)CC(=O)N(C)[C@@H](C(C)C)C(=O)O[C@@H]2C)c(N)c1=O [DACTINOMYCIN] (I: T[dV]P[Sar][NMeV] / II: T[dV]P[Sar][NMeV]; ester I:1-I:C, II:1-II:C; linker I:N-II:N via Actinocin(1to9))
IC50: 0.002 µg/mL (≈ 0.00159 µM)

C=C(C)[C@H]1CC[C@]2(C)C3CC[C@@H]4[C@@]5(C)CC[C@H](OC(=O)CCCCCCCCCCCCCCC)C(C)(C)[C@@H]5CC[C@@]4(C)[C@]3(C)CC[C@@H]12 (stereo partly drawn) [HOPENYL PALMITATE]
IC50: 11.6 µg/mL (≈ 17.4 µM)

CCCCCCCCCCCCCCCC(=O)O[C@H]1CC[C@]2(C)[C@H]3CC=C4[C@@H]5CCCC(C)(C)[C@@]5(C)CC[C@@]4(C)[C@]3(C)CC[C@H]2C1(C)C [KAIRATENYL PALMITATE]
IC50: 10 µg/mL (≈ 15 µM)

C=C(C)[C@@H]1CC[C@]2(C)CC[C@]3(C)[C@H](CC[C@@H]4[C@@]5(C)CC[C@H](OC(C)=O)C(C)(C)[C@@H]5CC[C@]43C)[C@@H]12 [LUPENYL ACETATE]
IC50: 15 µg/mL

C=C(C)[C@@H]1CC[C@]2(C)CC[C@]3(C)[C@H](CC[C@@H]4[C@@]5(C)CC[C@H](O)C(C)(C)[C@@H]5CC[C@]43C)[C@@H]12 [LUPEOL]
IC50: 16.2 µg/mL (≈ 38 µM)

CC(=O)O[C@H]1CC[C@]2(C)[C@H]3CC=C4[C@@H]5CC(C)(C)CC[C@]5(C)CC[C@@]4(C)[C@]3(C)CC[C@H]2C1(C)C [beta-AMYRIN ACETATE]
IC50: 12.1 µg/mL
